According to patent US11020405B2, “Method for prevention or treatment of diabetic complications” (KANGWON NATIONAL UNIVERSITY UNIVERSITY-INDUSTRY COOPERATION …, priority 2017, dated 2021):

Tests used:
[1] = Body weight and blood glucose monitoring in diabetic mice; type: in vivo, C57BL/6 mice
Procedure: FIGS. 19A and 19B show the preventive effects of midazolam against hyperglycemia-induced endothelial apoptosis in the aortic endothelium of diabetic mice. Six-week-old male C57BL/6 mice were administered with streptozotocin (150 mg/kg body weight) to give diabetic mouse models. One week after streptozotocin injection, diabetic mice were administered midazolam (10 mg/kg) by intraperitoneal injection daily for 14 days. The body weight of mice were measure in normal (20.7±0.1 g), diabetic (17.1±0.1 g), and midazolam supplemented diabetic mice (17.0±0.3 g). Blood glucose levels were also monitored in normal (124.0±12.0 mg/dL), diabetic (509.0±1.0 mg/dL), and midazolam supplemented diabetic mice (515.7±3.4 mg/dL). Aorta of mice were dissected and cut longitudinally to expose the endothelium. And then aortic segments were fixed for 15 min with 1% (w/v) paraformaldehyde in PBS, followed by treatment for 30 min with 70% (v/v) ethanol on ice. Apoptotic cells were stained by terminal deoxynucleotidyl transferase dUTP nick end labeling (TUNEL) with nuclear counterstaining with DAPI and visualized by confocal microscopy in the aortic endothelium. Representative images of endothelial apoptosis in aorta are shown in additional FIG. 19A. Scale bar, 100 μm. The results of endothelial apoptosis quantitatively analyzed by measurement of TUNEL staining in the aorta are shown in additional FIG. 19B (n=4 for normal and diabetic, n=6 for diabetic+Midazolam).
FIGS. 20A and 20B show the preventive effects of midazolam against hyperglycemia-induced renal vascular leakage in diabetic mice. Six-week-old male C57BL/6 mice were administered with streptozotocin (150 mg/kg body weight) to give diabetic mouse models. Two weeks after streptozotocin injection, diabetic mice were administered 10 mg/kg midazolam by intraperitoneal injection daily for 2 days, and vascular leakage was investigated. The body weight of mice were measure in normal (19.9±0.3 g), diabetic (17.7±0.3 g), and midazolam supplemented diabetic mice (17.7±0.3 g). Blood glucose levels were also monitored in normal (123.5±6.5 mg/dL), diabetic (505.0±89.0 mg/dL), and midazolam supplemented diabetic mice (500.3±63.3 mg/dL). The mice were anesthetized with 3% isoflurane, and 1.25 mg of FITC-dextran was injected into the right ventricle of each mouse and allowed to circulate for 5 min. […] The results of vascular leakage quantitatively analyzed by measuring the fluorescence intensity of FITC-dextran in the kidneys are shown in additional FIG. 20B. […]
FIGS. 21A and 21B show the preventive effects of midazolam against hyperglycemia-induced pulmonary vascular leakage in diabetic mice. […] Blood glucose levels were also monitored in normal (123.5±6.5 mg/dL), diabetic (505.0±89.0 mg/dL), and midazolam supplemented diabetic mice (500.3±63.3 mg/dL). […]

[2] = tested on: human retinal endothelial cells (HRECs); assay: Analysis of ROS of cells (H2DCFDA fluorescence); type: cell-based
Procedure: (§1) Purchased from Applied Cell Biology Research Institute (Cell Systems, Kirkland, Wash.), human retinal endothelial cells (HRECs) were cultured in an M19 medium, containing 20% FBS, 3 ng/mL bFGF, 5 U/mL heparin, 100 U/mL penicillin and […], in a 2% gelatin-coated plate.
(§2) Before the following Test Examples 2 to 7, the HRECs were cultured for 6 hr in a medium containing 1% FBS and an antibiotic agent, thus preparing HRECs of Test Example 1.
With reference to FIG. 3A, the HRECs of Test Example 1 were treated with 0 to 20 μM midazolam, cultured for 30 min, treated with 10 ng/mL VEGF and 10 μM H2DCFDA (Molecular Probes, Eugene, Oreg.), stained for 10 min in a phenol-red-free low-serum medium, and then measured using confocal microscopy to thus determine the fluorescence intensity of single cells.
With reference to FIG. 3B, the HRECs of Test Example 1 were subjected to the respective treatments below and cultured for 30 min. Upon treatment with 10 ng/mL VEGF, treatment with 10 μM H2DCFDA was performed therewith, or alternatively, treatment with 10 μM H2DCFDA was performed alone, followed by staining for 10 min in a phenol-red-free low-serum medium and then measurement via confocal microscopy to thus determine the fluorescence intensity of single cells.

VE-cadherin = assay: Analysis of adherens junction (VE-cadherin staining); type: cell-based, human; conditions: HRECs, 10 ng/mL VEGF 90 min with 20 μM midazolam, 5 μM BAPTA-AM, 1 mM NAC, 0.5 μM Trolox, 50 μM cystamine or 20 μM MDC (FIGS. 5, 6)
Procedure: as §1, §2
The HRECs of Test Example 1 were subjected to the respective treatments below and cultured for 30 min. Here, treatment with 10 ng/mL VEGF was performed for 90 min. Thereafter, the HRECs were treated with 1 mM 5-(biotinamido)pentylamine, incubated for 1 hr, fixed with 3.7% formaldehyde, treated with 0.2% triton X-100, treated with a blocking solution containing 138 mM NaCl, 0.1% Tween 20 and 2% BSA dissolved in a 20 mM Tris (pH 7.6) buffer, incubated for 30 min, incubated with a monoclonal VE-cadherin antibody (1:200; Santa Cruz Biotechnology) for 12 hr or more (overnight), incubated with a FITC-conjugated goat anti-mouse antibody (1:200; Sigma-Aldrich), and then measured using confocal microscopy. Some (the following i), iii), iv), vi), ix)) of the results are shown in FIG. 5 and the VE-cadherin concentrations in the portions represented by the dotted lines in FIG. 5 are shown in FIG. 6. With reference to FIG. 6, 10 randomly selected cells were measured to determine the fluorescence intensity of single cells and thus quantify VE-cadherin.
VE-cadherin, which is a protein that mediates adherens junction, was analyzed to evaluate adherens junction.

Cc1ncc2n1-c1ccc(Cl)cc1C(c1ccccc1F)=NC2 [midazolam]
body weight ([1]; Test Example 15: midazolam supplemented diabetic mice, 10 mg/kg intraperitoneal daily for 14 days): 17.0 ± 0.3 g | body weight ([1]; Test Example 16: midazolam supplemented diabetic mice, 10 mg/kg intraperitoneal daily for 2 days): 17.7 ± 0.3 g | body weight ([1]; Test Example 17: midazolam supplemented diabetic mice, 10 mg/kg intraperitoneal daily for 2 days): 17.6 ± 0.3 g | weight of mice ([1]; Test Example 18: midazolam supplemented diabetic mice, 10 mg/kg intraperitoneal daily for 14 days, B16F10 cells): 16.2 ± 0.5 g | ROS concentration, concentration dependence ([2]; 0 to 20 μM midazolam 30 min, then 10 ng/mL VEGF (FIG. 3A)): ROS concentration was decreased with an increase in the concentration of midazolam | ROS concentration (VEGF-induced) compared to control ([2]; 10 ng/mL VEGF with 20 μM midazolam, 5 μM BAPTA-AM, 1 mM NAC, 0.5 μM Trolox, 50 μM cystamine or 20 μM MDC (FIG. 3B)): no significant ROS concentration increase was observed | VE-cadherin concentration / adherens junction disruption due to VEGF (VE-cadherin): exhibited the effect of preventing the adherens junction disruption due to VEGF
